Test results from ChEMBL document CHEMBL4376833, “Influence of Non-natural Cationic Amino Acids on the Biological Activity Profile of Innate Defense Regulator Peptides” (J Med Chem, 2019).
Calls of active or inactive are those of the source. Unless noted, the calls are words filed in the database; no cut-off is given here. Non-standard residues stand in square brackets, D forms with d. Residues, ends and D or L forms follow the SMILES beside them. Agb = N=C(N)NCC[C@H](N)C(=O)O; Agp = N=C(N)NC[C@H](N)C(=O)O; Dab = NCC[C@H](N)C(=O)O; Dap = NC[C@H](N)C(=O)O

Columns and labels:
Staphylococcus aureus [1] = test: Antibiofilm activity against methicillin-resistant Staphylococcus aureus assessed as inhibition of biofilm formation incubated for overnight by crystal violet staining based microtiter plate assay; type: functional, organism-based
Staphylococcus aureus [2] = test: Antibiofilm activity against methicillin-resistant Staphylococcus aureus assessed as inhibition of biofilm formation by measuring residual biofilm growth incubated for overnight at 10-fold dilution by crystal violet staining based microtiter plate assay relative to control; type: functional
Staphylococcus aureus [3] = test: Antibacterial activity against methicillin-resistant Staphylococcus aureus assessed as alteration in bacterial growth incubated for overnight by microtiter plate based spectrophotometric analysis; type: functional, organism-based

Compound | inhibition (Staphylococcus aureus [1]) | residual biofilm growth (% of control) (Staphylococcus aureus [2]) [%] | Activity (Staphylococcus aureus [3]) | Activity (Staphylococcus aureus [2])
H-VRLIRAVRIWRR-NH2 | Dose-dependent effect | 102 | Active | 
H-VRLKVAVRIWRR-NH2 | Dose-dependent effect | 10.7 | Active | 
CC[C@H](C)[C@H](NC(=O)[C@H](CCCNC(=N)N)NC(=O)[C@@H](NC(=O)[C@H](C)NC(=O)[C@@H](NC(=O)[C@@H](NC(=O)[C@H](CC(C)C)NC(=O)[C@H](CCCNC(=N)N)NC(=O)[C@@H](N)C(C)C)[C@@H](C)CC)C(C)C)C(C)C)C(=O)N[C@@H](Cc1c[nH]c2ccccc12)C(=O)N[C@@H](CNC(=N)N)C(=O)N[C@@H](CCCNC(=N)N)C(N)=O (H-VRLIVAVRIW[Agp]R-NH2) |  |  |  | inactive
CC[C@H](C)[C@H](NC(=O)[C@H](CCCNC(=N)N)NC(=O)[C@@H](NC(=O)[C@H](C)NC(=O)[C@@H](NC(=O)[C@@H](NC(=O)[C@H](CC(C)C)NC(=O)[C@H](CCCNC(=N)N)NC(=O)[C@@H](N)C(C)C)[C@@H](C)CC)C(C)C)C(C)C)C(=O)N[C@@H](Cc1c[nH]c2ccccc12)C(=O)N[C@@H](CCN)C(=O)N[C@@H](CCCNC(=N)N)C(N)=O (H-VRLIVAVRIW[Dab]R-NH2) |  |  |  | inactive
CC[C@H](C)[C@H](NC(=O)[C@H](CCCNC(=N)N)NC(=O)[C@@H](NC(=O)[C@H](C)NC(=O)[C@@H](NC(=O)[C@@H](NC(=O)[C@H](CN)NC(=O)[C@H](CCCNC(=N)N)NC(=O)[C@@H](N)C(C)C)[C@@H](C)CC)C(C)C)C(C)C)C(=O)N[C@@H](Cc1c[nH]c2ccccc12)C(=O)N[C@@H](CCCNC(=N)N)C(=O)N[C@@H](CCCNC(=N)N)C(N)=O (H-VR[Dap]IVAVRIWRR-NH2) | Dose-dependent effect | 104.7 | Active | 
CC[C@H](C)[C@H](NC(=O)[C@H](CCCNC(=N)N)NC(=O)[C@@H](NC(=O)[C@H](C)NC(=O)[C@@H](NC(=O)[C@H](CN)NC(=O)[C@H](CC(C)C)NC(=O)[C@H](CCCNC(=N)N)NC(=O)[C@@H](N)C(C)C)C(C)C)C(C)C)C(=O)N[C@@H](Cc1c[nH]c2ccccc12)C(=O)N[C@@H](CCCNC(=N)N)C(=O)N[C@@H](CCCNC(=N)N)C(N)=O (H-VRL[Dap]VAVRIWRR-NH2) | Dose-dependent effect | 108.3 | Active | 
CC[C@H](C)[C@H](NC(=O)[C@H](CCCNC(=N)N)NC(=O)[C@@H](NC(=O)[C@H](C)NC(=O)[C@@H](NC(=O)[C@@H](NC(=O)[C@H](CC(C)C)NC(=O)[C@H](CCCNC(=N)N)NC(=O)[C@@H](N)C(C)C)[C@@H](C)CC)C(C)C)C(C)C)C(=O)N[C@@H](Cc1c[nH]c2ccccc12)C(=O)N[C@@H](CCCNC(=N)N)C(=O)N[C@@H](CCN)C(N)=O (H-VRLIVAVRIWR[Dab]-NH2) |  |  |  | inactive
CC[C@H](C)[C@H](NC(=O)[C@H](CCCNC(=N)N)NC(=O)[C@@H](NC(=O)[C@H](C)NC(=O)[C@@H](NC(=O)[C@@H](NC(=O)[C@H](CC(C)C)NC(=O)[C@H](CCCNC(=N)N)NC(=O)[C@@H](N)C(C)C)[C@@H](C)CC)C(C)C)C(C)C)C(=O)N[C@@H](Cc1c[nH]c2ccccc12)C(=O)N[C@@H](CCNC(=N)N)C(=O)N[C@@H](CCCNC(=N)N)C(N)=O (H-VRLIVAVRIW[Agb]R-NH2) |  |  |  | inactive
CC[C@H](C)[C@H](NC(=O)[C@H](CCCNC(=N)N)NC(=O)[C@@H](NC(=O)[C@H](C)NC(=O)[C@@H](NC(=O)[C@@H](NC(=O)[C@H](CC(C)C)NC(=O)[C@H](CCCNC(=N)N)NC(=O)[C@@H](N)C(C)C)[C@@H](C)CC)C(C)C)C(C)C)C(=O)N[C@@H](Cc1c[nH]c2ccccc12)C(=O)N[C@@H](CCCNC(=N)N)C(=O)N[C@@H](CNC(=N)N)C(N)=O (H-VRLIVAVRIWR[Agp]-NH2) |  |  |  | inactive
